The record followed here is US20190059368A1, “3,5-DIMETHOXYSTILBENE ANALOGS AND USES THEREOF” (The United States of America, as represented by the …, priority 2017, published 2019).

Where two headings read alike, the source gives them in different places.

Series [1] relates to Meloidogyne incognita second-stage juveniles (J2). The series is described as follows: M. incognita assay with previously hatched J2 immersed in test solutions. The conditions noted are these: in vivo. As to the method: (§1) Two types of assays were used to investigate activity against M. incognita: i) eggs were immersed in solutions of the test compounds, and ii) second-stage juveniles (J2) previously hatched from eggs were immersed in the test solutions. These assays were conducted with procedures similar to those in Meyer, et al. (J. Nematol. 2006, 38, 333). M. incognita race 1 (originally isolated in 2013 from a field in Maryland) was grown in the greenhouse on pepper (Capsicum annuum L.) cultivar PA-136. Egg masses were hand-picked from plant roots, rinsed three times with sterile distilled H2O, and agitated in 0.6% NaClO for 3.5 minutes to separate and surface-sterilize eggs. The eggs were rinsed in sterile distilled H2O and stored overnight at 4° C. before use in egg immersion assays. To collect J2 for direct immersion into the test compounds, sterilized eggs were placed into a hatching chamber made with a Spectra/Mesh Nylon Filter (openings 25 μm in diameter; Spectrum Laboratories Inc., Rancho Dominguez, Calif., USA) in an autoclaved dish. J2 that passed through the filter within 3 days were used immediately for assays.
The assays were conducted in 96-well polystyrene plates. For the assays with immersed eggs, each well received approximately 50 eggs in 35 μl of sterile deionized water (SDW). For assays with previously hatched J2, a suspension of approximately 50 J2 in 35 μl of SDW was placed into each well. Each well then received 165 μl of treatment or control. The solvent used to dissolve the test chemicals was a 1:1:1 mixture referred to herein as CTD: equal parts Cremophor® EL Castor Oil (BASF Corporation, Vandalia, Ill., USA), Tween 80® (Sigma-Aldrich, St. Louis, Mo., USA), and DMSO (Sigma-Aldrich). A high and low rate of each compound was tested. After addition to the nematode suspensions in the wells, the low and high rates were 83.3 and 166.7 μg/ml of each test compound, respectively, dissolved in 0.5% and 1.0% of each of the three combined solvents. Controls were CTD equivalent to the low and high rates, and SDW. Because of the large number of treatments, the test compounds were divided into two groups for the egg immersion assays. The compounds tested in the egg immersion Assay 1 were 3, 6a, 6e, 6f, 6g, 6n, 7a, 7c, 7e, 7f, 7n, 11, 12, 16, and 17. The compounds tested in the egg immersion Assay 2 were 6b, 6h, 6i, 6j, 6k, 6l , 7b, 7g, 7h, 7i, 7j, 7k, 7l, and 7m (data not shown). Test compounds used for assays with previously hatched J2 were selected based on results with the egg assays. […]
Each polystyrene culture plate was covered with a plastic adhesive sheet (Excel Scientific, Inc., Victorville, Calif., USA) and incubated at 25° C. […] In egg immersion assays, total numbers of hatched J2, and numbers of mobile and immobile J2, were counted after 2 and 7 days incubation in the test compounds. In the first assay with previously hatched J2, the numbers of mobile and immobile J2 were counted after 1 and 2 days incubation, the treatments removed and replaced with a SDW rinse, and 2 days later the mobile vs. immobile J2 counted again. […]
Data from the M. incognita assays were analyzed with the statistical package JMP 11.2.0 (SAS Institute, Cary, N.C., USA). Differences among numbers of hatched J2 in each treatment, and among percentage of mobile J2 per treatment (number mobile J2/total J2×100), were determined by the ANOVA, and means were compared using Tukey Kramer's adjustment for multiple comparisons (P<0.05). […]

Series [2] has as its system Meloidogyne incognita eggs. The series is described as follows: M. incognita egg immersion assay (hatch and mobility of hatched J2). Format: in vivo. The note with it: for Percent mobile J2, assay 2: 2 days; for effect on mobility of J2 hatched from eggs immersed in solutions (in words): in vivo; for Percent mobile J2, assay 1: 7 days. As for the experimental part:
as §1
The assays were conducted in 96-well polystyrene plates. For the assays with immersed eggs, each well received approximately 50 eggs in 35 μl of sterile deionized water (SDW). For assays with previously hatched J2, a suspension of approximately 50 J2 in 35 μl of SDW was placed into each well. Each well then received 165 μl of treatment or control. The solvent used to dissolve the test chemicals was a 1:1:1 mixture referred to herein as CTD: equal parts Cremophor® EL Castor Oil (BASF Corporation, Vandalia, Ill., USA), Tween 80® (Sigma-Aldrich, St. Louis, Mo., USA), and DMSO (Sigma-Aldrich). A high and low rate of each compound was tested. After addition to the nematode suspensions in the wells, the low and high rates were 83.3 and 166.7 μg/ml of each test compound, respectively, dissolved in 0.5% and 1.0% of each of the three combined solvents. Controls were CTD equivalent to the low and high rates, and SDW. Because of the large number of treatments, the test compounds were divided into two groups for the egg immersion assays. The compounds tested in the egg immersion Assay 1 were 3, 6a, 6e, 6f, 6g, 6n, 7a, 7c, 7e, 7f, 7n, 11, 12, 16, and 17. The compounds tested in the egg immersion Assay 2 were 6b, 6h, 6i, 6j, 6k, 6l , 7b, 7g, 7h, 7i, 7j, 7k, 7l, and 7m (data not shown). Test compounds used for assays with previously hatched J2 were selected based on results with the egg assays. The five compounds tested were 6b, 6f, 6g, 6i, and 7k, high and low rates.
Each polystyrene culture plate was covered with a plastic adhesive sheet (Excel Scientific, Inc., Victorville, Calif., USA) and incubated at 25° C. Ten wells (water controls) or five wells (all other treatments) were used per treatment in each assay. In egg immersion assays, total numbers of hatched J2, and numbers of mobile and immobile J2, were counted after 2 and 7 days incubation in the test compounds. In the first assay with previously hatched J2, the numbers of mobile and immobile J2 were counted after 1 and 2 days incubation, the treatments removed and replaced with a SDW rinse, and 2 days later the mobile vs. immobile J2 counted again. In assays with 6g and 7k, high rates and counts were made on Days 1, 2, 4, and 6, without a SDW rinse.
Data from the M. incognita assays were analyzed with the statistical package JMP 11.2.0 (SAS Institute, Cary, N.C., USA). Differences among numbers of hatched J2 in each treatment, and among percentage of mobile J2 per treatment (number mobile J2/total J2×100), were determined by the ANOVA, and means were compared using Tukey Kramer's adjustment for multiple comparisons (P<0.05). For percent mobile J2 on Day 2 in egg immersion Assays 1 and 2, and Day 4 with the five compounds in the J2 immersion assay, data were log10 (x+1)-transformed before analysis. Data presented are nontransformed means.

For series [3], the system named is larvae of ORL and PR strains of Ae. aegypti. Format: in vivo. The conditions noted are these: larvae, 0.1 μg/μl, 24 h. As for the experimental part:
(§2) Further tests were performed on compounds 11 and 12 to determine their effect on larvae and adult mosquitoes. The compounds were tested in the standard bioassays using the Orlando (ORL), pesticide-susceptible strain and the Puerto Rico (PR), pyrethroid-resistant strain of Ae. aegypti. The ORL strain has been in continuous colony since 1952 with no pesticide exposure while the resistant PR strain was colonized from egg papers collected near San Juan, PR in June, 2012. The PR strain is available as a resistant reference strain through BEIResources/CDC. Mortality was determined in the larval assays at four different concentrations (1, 0.5, 0.25, and 0.1 μg/μl) and three concentrations for adults (6.25%, 3.125%, and 1.56%). Mortality was recorded 24 h post-application, and in all assays, a negative solvent and a positive control using permethrin were utilized; tests were done in triplicate. Assays were conducted according to published procedures as described in Wanner, J. et al. (Curr. Bioact. Compd. 2015, 11, 13).

Series [4] concerns adults of ORL and PR strains of Ae. aegypti. The series can be described thus: Adult mosquito assay, ORL and PR strains. Format: in vivo. The conditions noted are these: adults, 6.25%, 24 h. As to the method: as §2

Take `COc1ccc(/C=C\c2cc(OC)c(C)c(OC)c2)cc1OC` [Compound 7k, (Z)-1,3-dimethoxy-5-(3,4-dimethoxystyryl)-2-methylbenzene]: the “effect on mobility of J2 previously hatched in water and immersed directly (in words)” value in series [1] was “had an effect on J2 mobility”. The results for the “Percent mobile J2, assay 2” value in series [2] (high rate (166.7 μg/ml)) and in series [2] (low rate (83.3 μg/ml)) were 72.2% and 92.5%, respectively. Besides, in series [2], the “effect on mobility of J2 hatched from eggs immersed in solutions (in words)” value (shortened to “effect on mobility of J2 hatched”) is “some suppressive effect on mobility”.
For the compound `CC1(C)C(C=C(Cl)Cl)C1C(=O)OCc1cccc(Oc2ccccc2)c1` (stereo not shown) [Permethrin, permethrin, reference compound], the “Percent Mortality” value amounted to 100% in series [3] (ORL strain), 93.3 ± 11.5% in series [3] (PR strain), 100% in series [4] (ORL strain) and 85 ± 10% in series [4] (PR strain).
Consider `COc1cc(/C=C/c2ccc(Cl)cc2)cc(OC)c1C` [Compound 6f, (E)-1,3-dimethoxy-5-(4-chlorostyryl)-2-methylbenzene], for which the “effect on mobility of J2 previously hatched in water and immersed directly (in words)” value in series [1] was “only 6g and 7k had an effect on J2 mobility”. Moreover, the “Percent mobile J2, assay 1” value in series [2] (high rate (166.7 μg/ml)) is listed as 71.3%; in series [2] (low rate (83.3 μg/ml)), 93.9%. Also, the “effect on mobility of J2 hatched” value in series [2] is reported as “some suppressive effect on mobility”.
Consider `COc1cc(/C=C/c2ccc(Br)cc2)cc(OC)c1C` [Compound 6g, (E)-1,3-dimethoxy-5-(4-bromostyryl)-2-methylbenzene], for which, in series [1], the “effect on mobility of J2 previously hatched in water and immersed directly (in words)” value was “had an effect on J2 mobility”. Further, the “Percent mobile J2, assay 1” value turned out to be 74.6% in series [2] (high rate (166.7 μg/ml)) and 89.2% in series [2] (low rate (83.3 μg/ml)). The “effect on mobility of J2 hatched” value in series [2] is “some suppressive effect on mobility”.
